Experimental data: patent US7749980B2, “Non-nucleotide compositions and method for treating pain” (Inspire Pharmaceuticals, Inc., priority 2003, dated 2010)

System: mice
Experiment: acetic acid-induced abdominal constriction assay for visceral pain in mice
Format: in vivo
Conditions: for number of averaged abdominal constrictions during the observation time interval compared to saline control: 50 mg/kg i.p. in physiological saline, 10 minutes prior to i.p. 0.9% acetic acid, 10 minutes of observation starting 5 minutes after acetic acid, statistical difference versus saline control group; for pharmacological effect over saline vehicle control in reducing the abdominal constrictions induced by 0.9% acetic acid: similar studies, dose dependence
Source text: The method employed is a modification of the abdominal constriction test described by Collier, et. al (Collier, et al., Br. J. Pharmacol. Chemother. 32: 295-310 (1968)). For the rest of the example, compound: 6-(phenylureido)purine-2′, 3′-(4-ethylcyclohexylspiroketyl)-5′-nicotinyl-ribofuranoside is named “Compound A” and {6-[6-(Cyclohexylmethyl-amino)-purin-9-yl]-2-isobutyl-tetrahydro-furo[3,4-d][1,3]dioxol-4-yl}-methanol is named “Compound B”.
Briefly, a group of eight mice is designated as the control group, and each of said mice in the group receives an intraperitoneal (i.p.) injection of physiological saline in a dose-volume: mouse-weight ratio of 5 mL/kg ten minutes prior to an i.p. injection of 0.9% acetic acid in physiological saline in a dose-volume: mouse-weight ratio of 10 mL/kg. Each of said mice in the control group is placed in its own observation chamber shortly after the acetic acid injection and is allowed to explore. Each testing period starts 5 minutes after the acetic acid injection into a mouse, and consists of 10 minutes of observation during which time the number of abdominal constrictions of the mouse are counted. Abdominal constriction is defined as a lengthwise stretching of the torso with concave arching of the back. An average number of total constrictions per mouse per observation time is calculated from mice in the control group, and this indicates a baseline level of pain response in the control group animals.
Compound A is administered i.p., at a dose of 50 mg/kg suspended in a volume of physiological saline (5 mL/kg), 10 minutes prior to the administration of acetic acid, as described for the control group above.
Compound B is administered i.p., at a dose of 50 mg/kg suspended in a volume of physiological saline (5 mL/kg), 10 minutes prior to the administration of acetic acid, as described for the control group above.

Molecule	number of averaged abdominal constrictions during the observation time interval compared to saline control	pharmacological effect over saline vehicle control in reducing the abdominal constrictions induced by 0.9% acetic acid
6-(phenylureido)purine-2′, 3′-(4-ethylcyclohexylspiroketyl)-5′-nicotinyl-ribofuranoside [Compound A]	lower	dose dependent pharmacological effect
CC(C)CC1OC2C(CO)OC(n3cnc4c(NCC5CCCCC5)ncnc43)C2O1 (stereo not shown) [Compound B, {6-[6-(Cyclohexylmethyl-amino)-purin-9-yl]-2-isobutyl-tetrahydro-furo[3,4-d][1,3]dioxol-4-yl}-methanol]	lower	dose dependent pharmacological effect
